We go through 6 compounds from ChEMBL document CHEMBL1135057, “A combinatorial library of indinavir analogues and its in vitro and in vivo studies” (Bioorg Med Chem Lett, 2002).

The species entered for data set [1] is Canis familiaris. Briefly: Tested for the pharmacokinetic data, time required to reach Cmax (Tmax) in dog. In kind it is ADME, organism-based, Canis lupus familiaris. As to conditions: in vivo.
A short description of data set [2]: Tested for the pharmacokinetic data, time required to reach Cmax (Tmax) in dog at dosage of 10 mpk. It is filed as ADME, organism-based, Canis lupus familiaris. As to conditions: in vivo, 10 mg/kg.
The nature of data set [3]: Tested for the pharmacokinetic data, maximum concentration (Cmax) in dog at dosage of 10 mpk. In kind it is ADME, organism-based, Canis lupus familiaris. To be noted: in vivo, 10 mg/kg. Details: dose 10 mpk.
A short description of data set [4]: Tested for the pharmacokinetic data, area under the curve of concentration versus time in dog at dosage of 10 mpk. To be noted: in vivo, 10 mg/kg. It is filed as ADME, organism-based, Canis lupus familiaris.
The nature of data set [5]: Tested for the half life period in dog at dosage of 10 mpk. In kind it is ADME, organism-based, Canis lupus familiaris. As to conditions: in vivo, 10 mg/kg.
Data set [6] can be described thus: Tested for the half life period in dog. It is filed as ADME, organism-based, Canis lupus familiaris. As to conditions: in vivo.
A short description of data set [7]: Tested for the pharmacokinetic data, maximum concentration (Cmax) in dog. In kind it is ADME, organism-based, Canis lupus familiaris. To be noted: in vivo.
The nature of data set [8]: Tested for the pharmacokinetic data, area under the curve of concentration versus time in dog. It is filed as ADME, organism-based, Canis lupus familiaris. To be noted: in vivo.
Data set [9] addresses T1, Human immunodeficiency virus type 1 protease (Human immunodeficiency virus 1, UniProt Q72874). Nature of the data set: Tested in vitro for the ability to inhibit cleavage of a substrate by the wild type HIV-1 protease.
In data set [10] the target is T1, Human immunodeficiency virus type 1 protease. Nature of the data set: Tested in vitro for potential potency against PI-resistant HIV virus by A-44 mutant enzyme variant.
Data set [11] relates to Human immunodeficiency virus 1. Briefly: Inhibition of the spread of viral infection in MT-4 human T-lymphoid cells infected by IIIb isolate. In kind it is functional. To be noted: Human immunodeficiency virus 1, T-lymphoid; read-out: CIC95.

The Tmax is the time from dosing to the highest level. Broadly, the Cmax is the maximum level reached in the sampled fluid or tissue. As a reminder, the AUC is the area under the concentration-time curve, a measure of exposure. Broadly, the half-life is the time needed for the level to fall by half in the phase considered. Read a low half-life as fast loss. Consider `C[C@@H]1CC[C@@H](O)C1NC(=O)[C@H](CC1CCCCC1)C[C@H](O)CN1CCN(Cc2cccnc2)C[C@H]1C(=O)NC(C)(C)C` (single isomer, unassigned), for which the T max in data set [1] amounted to 40 min. In addition, the time to peak (Tmax) in data set [2] is 25 min. In addition, the values for the Cmax in data set [3] and in data set [7] were 3760 nM and 483 nM, respectively. The AUC in data set [4] was 3.83 µM·h; in data set [8], 0.504 µM·h. Further, the half-life in [5] turned out to be 49 min; in data set [6], 42.5 min.

For the compound `CC(C)(C)NC(=O)[C@@H]1CN(Cc2cccnc2)CCN1C[C@@H](O)C[C@@H](CC1CCCCC1)C(=O)NC1c2cccc(Cl)c2C[C@H]1O` (single isomer, unassigned), the T max in data set [1] was 40 min. For the same compound, the time of peak concentration (Tmax) in data set [2] was 35 min. In addition, the Cmax in data set [3] turned out to be 360 nM; in [7] it was 182 nM. In addition, the AUC in data set [4] worked out at 0.48 µM·h; in data set [8], 0.235 µM·h. For the same compound, the half-life stood at 53 min in data set [5] and 81 min in data set [6].

For orientation: IC50 means the midpoint of a concentration-inhibition curve. The low end stands for higher potency, the high end for lower potency. Take `Cn1nc(C(F)(F)F)cc1-c1ccc(CN2CCN(C[C@@H](O)C[C@@H](Cc3ccccc3)C(=O)NC3c4ccccc4C[C@H]3O)[C@H](C(=O)NC(C)(C)C)C2)s1` (single isomer, unassigned): the IC50 in data set [9] was less than 0.1 nM; in data set [10], less than 0.6 nM. The IC95 in data set [11] came to 6 nM.

`C[C@@H]1CC[C@@H](O)C1NC(=O)[C@H](CC1CC1)C[C@H](O)CN1CCN(Cc2cccnc2)C[C@H]1C(=O)NC(C)(C)C` (single isomer, unassigned) displayed a T max in data set [1] of 40 min. Further, the Tmax in data set [2] was 45 min. The maximum concentration (Cmax) in [3] worked out at 6620 nM; in [7], 996 nM. For the same compound, the exposure (AUC) turned out to be 5.28 µM·h in data set [4] and 0.839 µM·h in data set [8]. Moreover, the half-life in [5] came to 41 min; in data set [6], 19 min.

`CC(C)(C)NC(=O)[C@@H]1CN(Cc2ncc(-c3ccccc3)s2)CCN1C[C@@H](O)C[C@@H](Cc1ccccc1)C(=O)N[C@H]1c2ccccc2C[C@H]1O`: the concentration for half-maximal inhibition (IC50) in [9] was less than 0.1 nM; in [10], less than 0.6 nM. The IC95 in data set [11] turned out to be 25 nM.

In the case of `CN(C)c1ccc2cc(S(=O)(=O)N3CCN(C[C@@H](O)C[C@@H](Cc4ccccc4)C(=O)N[C@H]4c5ccccc5C[C@H]4O)[C@H](C(=O)NC(C)(C)C)C3)ccc2n1`, the IC50 in data set [9] was less than 0.1 nM; in [10], less than 0.6 nM. The IC95 in data set [11] was determined as 12.5 nM.
